For the experiment, the system named is subject with a body weight of 51.5 kg. Kind of experiment: GnRH stimulation test (LH and FSH levels). It counts as in vivo, human. The protocol: In the test, a subject with a body weight of 51.5 kg was included, and their luteinizing hormone (LH) and follicle-stimulating hormone (FSH) levels were measured as test indicators both in mIU/mL.

“GnRH: stimulating agent of the GnRH stimulation test; not further described (QHWSYGLRPG; Gonadoliberin-1; UniProt P01148 24-33, looked up)” came in with an FSH (0 min (reference time)) of 3.49 mIU/mL; an FSH (25 min) of 4.47 mIU/mL; an FSH (45 min) of 5.44 mIU/mL; an FSH (90 min) of 6.21 mIU/mL; an FSH (180 min) of 6.12 mIU/mL. The LH came to 0.99 mIU/mL (0 min (reference time)); 3.2 mIU/mL (25 min); 3.76 mIU/mL (45 min); 3.76 mIU/mL (90 min); 2.46 mIU/mL (180 min). This substance displayed an FSH maximum level (maximum stimulated level) of 6.21 mIU/mL. In addition, the LH maximum level (maximum stimulated level) stood at 3.76 mIU/mL.

These data come from patent US10675333B2, “Infusion pump” (priority 2016, dated 2020).
